Assay results reported in US6737383B1, “Herbicidal oxadiazolidines” (priority 1999, dated 2004).

Experiments:
crabgrass = experiment: Test B pre/postemergence crabgrass; type: in vivo, Digitaria sanguinalis
How it was run: (§1)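 Herbicidal effect was estimated by eye on a ten-point control scale after plants spent twelve to sixteen days in a greenhouse following soil or foliar treatment. Foliar sprays targeted plants at one to four leaves; all doses were formulated in a non-phytotoxic solvent with surfactant.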

cocklebur = experiment: Test B pre/postemergence cocklebur; type: in vivo, Xanthium strumarium
How it was run: as §1

surinam grass = experiment: Test B pre/postemergence surinam grass; type: in vivo, Brachiaria decumbens
How it was run: as §1

bedstraw = experiment: Test B pre/postemergence bedstraw; type: in vivo, Galium aparine
How it was run: as §1

pigweed = experiment: Test B pre/postemergence pigweed; type: in vivo, Amaranthus retroflexus
How it was run: as §1

purple nutsedge = experiment: Test B pre/postemergence purple nutsedge; type: in vivo, Cyperus rotundus
How it was run: as §1

blackgrass = experiment: Test B pre/postemergence blackgrass; type: in vivo, Alopecurus myosuroides
How it was run: as §1

soybean = experiment: Test B pre/postemergence soybean; type: in vivo, Glycine max
How it was run: as §1

velvetleaf = experiment: Test B pre/postemergence velvetleaf; type: in vivo, Abutilon theophrasti
How it was run: as §1

wild oat = experiment: Test B pre/postemergence wild oat; type: in vivo, Avena fatua
How it was run: as §1

morningglory = experiment: Test B pre/postemergence morningglory; type: in vivo, Ipomoea hederacea
How it was run: as §1

rape = experiment: Test B pre/postemergence rape; type: in vivo, Brassica napus
How it was run: as §1

corn = experiment: Test B pre/postemergence corn; type: in vivo, Zea mays
How it was run: as §1

giant foxtail = experiment: Test B pre/postemergence giant foxtail; type: in vivo, Setaria faberii
How it was run: as §1

wheat = experiment: Test B pre/postemergence wheat; type: in vivo, Triticum aestivum
How it was run: as §1

[1] = Preemergence, Rate 62 g/ha, scale of 0 to 10 where 0 is no effect and 10 is complete control
[2] = Preemergence, Rate 125 g/ha, 0 is no effect, 10 is complete control
[3] = Preemergence, Rate 250 g/ha, scale 0 to 10, 0 is no effect, 10 is complete control
[4] = Preemergence, Rate 500 g/ha, scale 0 (no effect) to 10 (complete control)
[5] = Preemergence, Rate 500 g/ha, scale of 0 to 10 where 0 is no effect and 10 is complete control
[6] = Rate 62 g/ha, Postemergence, scale of 0 to 10 where 0 is no effect and 10 is complete control
[7] = Rate 125 g/ha, Postemergence, scale 0 to 10
[8] = Rate 500 g/ha, Postemergence, scale 0 to 10

CCc1cccc(C)c1-n1c(=O)on(C(=O)N(c2ccc(F)cc2)C(C)C)c1=O [Compound 201]
4: Crabgrass plant response rating (crabgrass; [4]) | Plant response rating, B. signalgrass (surinam grass; [5]) | Blackgrass plant response rating (blackgrass; [3]) | Blackgrass plant response rating (blackgrass; [4]) | Plant response rating, Blackgrass (blackgrass; [5]) | Blackgrass plant response rating (blackgrass; [8])
1: Soybean plant response rating (soybean; [6]) | Soybean plant response rating (soybean; [7]) | Plant response rating (0 to 10; 0 is no effect, 10 is complete control), Velvetleaf (velvetleaf; Rate 250 g/ha, Postemergence) | Morningglory plant response rating (morningglory; [6]) | Morningglory plant response rating (morningglory; [7]) | Plant response rating (0 to 10; 0 is no effect, 10 is complete control), Morningglory (morningglory; Rate 250 g/ha, Postemergence)
6: Giant foxtail plant response rating (0 to 10 scale) (giant foxtail; [2])
10: Giant foxtail plant response rating (giant foxtail; [4]) | Plant response rating, Giant foxtail (giant foxtail; [5])
9: Crabgrass plant response rating (crabgrass; [3]) | Plant response rating, Crabgrass (crabgrass; [5])
0: Crabgrass plant response rating (crabgrass; [1]) | Crabgrass plant response rating (crabgrass; [6]) | Crabgrass plant response rating (crabgrass; [7]) | Plant response rating (0 to 10; 0 is no effect, 10 is complete control), Crabgrass (crabgrass; Rate 250 g/ha, Postemergence) | Crabgrass plant response rating (crabgrass; [8]) | Cocklebur plant response rating (cocklebur; [1]) | Cocklebur plant response rating (0 to 10 scale) (cocklebur; [2]) | Cocklebur plant response rating (cocklebur; [3]) | Cocklebur plant response rating (cocklebur; [4]) | Plant response rating, Cocklebur (cocklebur; [5]) | Cocklebur plant response rating (cocklebur; [6]) | Cocklebur plant response rating (cocklebur; [7]) | Plant response rating (0 to 10; 0 is no effect, 10 is complete control), Cocklebur (cocklebur; Rate 250 g/ha, Postemergence) | Cocklebur plant response rating (cocklebur; [8]) | B. signalgrass plant response rating (surinam grass; [1]) | B. signalgrass plant response rating (0 to 10 scale) (surinam grass; [2]) | B. signalgrass plant response rating (surinam grass; [3]) | B. signalgrass plant response rating (surinam grass; [4]) | B. signalgrass plant response rating (surinam grass; [6]) | B. signalgrass plant response rating (surinam grass; Rate 125 g/ha, Postemergence, scale 0 (no effect) to 10 (complete control)) | Plant response rating, B. signalgrass (surinam grass; Rate 250 g/ha, Postemergence, scale 0 to 10, 0 is no effect, 10 is complete control) | B. signalgrass plant response rating (surinam grass; Rate 500 g/ha, Postemergence, scale 0 to 10, 0 no effect, 10 complete control) | Bedstraw plant response rating (bedstraw; [1]) | Bedstraw plant response rating (0 to 10 scale) (bedstraw; [2]) | Bedstraw plant response rating (bedstraw; [3]) | Bedstraw plant response rating (bedstraw; [4]) | Plant response rating, Bedstraw (bedstraw; [5]) | Bedstraw plant response rating (bedstraw; [6]) | Bedstraw plant response rating (bedstraw; [7]) | Plant response rating (0 to 10; 0 is no effect, 10 is complete control), Bedstraw (bedstraw; Rate 250 g/ha, Postemergence) | Bedstraw plant response rating (bedstraw; [8]) | Redroot pigweed plant response rating (pigweed; [1]) | Redroot pigweed plant response rating (0 to 10 scale) (pigweed; [2]) | Redroot pigweed plant response rating (pigweed; [3]) | Redroot pigweed plant response rating (pigweed; [4]) | Plant response rating, Redroot pigweed (pigweed; [5]) | Redroot pigweed plant response rating (pigweed; [6]) | Redroot pigweed plant response rating (pigweed; [7]) | Plant response rating (0 to 10; 0 is no effect, 10 is complete control), Redroot pigweed (pigweed; Rate 250 g/ha, Postemergence) | Nutsedge plant response rating (purple nutsedge; [1]) | Nutsedge plant response rating (0 to 10 scale) (purple nutsedge; [2]) | Nutsedge plant response rating (purple nutsedge; [4]) | Nutsedge plant response rating (purple nutsedge; [6]) | Nutsedge plant response rating (purple nutsedge; [7]) | Plant response rating (0 to 10; 0 is no effect, 10 is complete control), Nutsedge (purple nutsedge; Rate 250 g/ha, Postemergence) | Nutsedge plant response rating (purple nutsedge; [8]) | Blackgrass plant response rating (blackgrass; [1]) | Blackgrass plant response rating (0 to 10 scale) (blackgrass; [2]) | Blackgrass plant response rating (blackgrass; [6]) | Blackgrass plant response rating (blackgrass; [7]) | Plant response rating (0 to 10; 0 is no effect, 10 is complete control), Blackgrass (blackgrass; Rate 250 g/ha, Postemergence) | Soybean plant response rating (soybean; [1]) | Soybean plant response rating (0 to 10 scale) (soybean; [2]) | Soybean plant response rating (soybean; [3]) | Soybean plant response rating (soybean; [4]) | Plant response rating, Soybean (soybean; [5]) | Velvetleaf plant response rating (velvetleaf; [1]) | Velvetleaf plant response rating (velvetleaf; [3]) | Velvetleaf plant response rating (velvetleaf; [4]) | Plant response rating, Velvetleaf (velvetleaf; [5]) | Velvetleaf plant response rating (velvetleaf; [6]) | Velvetleaf plant response rating (velvetleaf; [7]) | Wild oats plant response rating (wild oat; [1]) | Wild oats plant response rating (wild oat; [4]) | Wild oats plant response rating (wild oat; [6]) | Wild oats plant response rating (wild oat; [7]) | Plant response rating (0 to 10; 0 is no effect, 10 is complete control), Wild oats (wild oat; Rate 250 g/ha, Postemergence) | Morningglory plant response rating (morningglory; [1]) | Morningglory plant response rating (0 to 10 scale) (morningglory; [2]) | Morningglory plant response rating (morningglory; [3]) | Morningglory plant response rating (morningglory; [4]) | Plant response rating, Morningglory (morningglory; [5]) | Rape plant response rating (rape; [1]) | Rape plant response rating (0 to 10 scale) (rape; [2]) | Rape plant response rating (rape; [3]) | Rape plant response rating (rape; [4]) | Plant response rating, Rape (rape; [5]) | Rape plant response rating (rape; [6]) | Rape plant response rating (rape; [7]) | Plant response rating (0 to 10; 0 is no effect, 10 is complete control), Rape (rape; Rate 250 g/ha, Postemergence) | Rape plant response rating (rape; [8]) | Corn plant response rating (corn; [1]) | Corn plant response rating (0 to 10 scale) (corn; [2]) | Corn plant response rating (corn; [3]) | Corn plant response rating (corn; [4]) | Plant response rating, Corn (corn; [5]) | Corn plant response rating (corn; [6]) | Corn plant response rating (corn; [7]) | Plant response rating (0 to 10; 0 is no effect, 10 is complete control), Corn (corn; Rate 250 g/ha, Postemergence) | Corn plant response rating (corn; [8]) | Giant foxtail plant response rating (giant foxtail; [6]) | Giant foxtail plant response rating (giant foxtail; [7]) | Plant response rating (0 to 10; 0 is no effect, 10 is complete control), Giant foxtail (giant foxtail; Rate 250 g/ha, Postemergence) | Giant foxtail plant response rating (giant foxtail; [8]) | Wheat plant response rating (wheat; [1]) | Wheat plant response rating (wheat; [3]) | Wheat plant response rating (wheat; [4]) | Wheat plant response rating (wheat; [6]) | Wheat plant response rating (wheat; [7]) | Plant response rating (0 to 10; 0 is no effect, 10 is complete control), Wheat (wheat; Rate 250 g/ha, Postemergence)
5: Crabgrass plant response rating (0 to 10 scale) (crabgrass; [2]) | Plant response rating, Wild oats (wild oat; [5])
3: Redroot pigweed plant response rating (pigweed; [8]) | Soybean plant response rating (soybean; [8]) | Wild oats plant response rating (wild oat; [3]) | Morningglory plant response rating (morningglory; [8])
8: Giant foxtail plant response rating (giant foxtail; [3])
2: Plant response rating (0 to 10; 0 is no effect, 10 is complete control), Soybean (soybean; Rate 250 g/ha, Postemergence) | Giant foxtail plant response rating (giant foxtail; [1]) | Plant response rating, Wheat (wheat; [5])
